Patent publication US8461146B2, “Pharmaceutical composition for the treatment of premature ejaculation” (priority 2008, dated 2013)
Entries after “also recorded” stand apart in the source; their conditions may differ.

Legend:
[1] = system: premature ejaculation patients; conditions: clomipramine 25 mg or 50 mg per day; sertraline 50 mg to 200 mg per day; fluoxetine 40 mg; cited from earlier work
[2] = Side effect evaluation, clinical study (sedation); assay type: in vivo, human; conditions: clomipramine 22.4 mg, triple C 7.5 + S 11.3 + F 5.9 mg
Protocol: (§1) Patients with premature ejaculation of 60 seconds or less were divided into 4 groups of twenty people. […] A dose was taken 3 hours before the sexual intercourse begins, and the administration period was for 3 weeks. The effect of the administration of the drugs to the patients examined through interviews with the patients.
A side effect incidence rate of sedation was investigated among patients who took each drug in Example 4.

[3] = system: Patients with premature ejaculation of 60 seconds or less; assay: Clinical study: treatment effect in patients with premature ejaculation; assay type: in vivo, human; conditions: sertraline 50.0 mg, fluoxetine 20.0 mg, triple C 7.5 + S 11.3 + F 5.9 mg, 3 weeks; for Patient no. with ELT of 10 min or over: of 20 patients per group, daily dose clomipramine 22.4 mg, 3 hours before intercourse; for Treatment effect: share of 20 patients with ELT 10 min or more, clomipramine 22.4 mg
Protocol: Patients with premature ejaculation of 60 seconds or less were divided into 4 groups of twenty people. […] A dose was taken 3 hours before the sexual intercourse begins, and the administration period was for 3 weeks. The effect of the administration of the drugs to the patients examined through interviews with the patients. A drug was determined as effective when the patient's ejaculation latency time had been 10 minutes or more.

[4] = system: sexually active male Crl:CD (SD) rats; assay: Pharmacological effect evaluation (rats): copulatory behavior test, ejaculation latency time; assay type: in vivo; conditions: single drugs and double-drug combinations, C 2.70, S 6.02, F 2.41 mg/kg; for Ejaculation latency time, mean ± S.E.M.: single oral, test 3 h after dosing; for Increasing rate of ELT: vs negative control
Protocol: According to the method of Brain Res Brain Res Protoc, 1997, (1):203-9, this experiment was executed by employing male and female Crl:CD (SD) rats above 20 weeks old as test animals.
The female rats were anesthetized by the intraperitoneal injection of combination of ketamine 75 mg/kg and xylazine 25 mg/kg. After performing laparotomy, the ovaries were removed and peritoneal wall was closed with sutures. 2 ml of 10% ampicillin was injected intraperitoneally and the female rats had recovery period of 7 days. Ovariectomied females were brought into artificial estrus by subcutaneous injection of 20 μg/rat of estradiol benzoate, dissolved in 0.2 ml of sesame oil, about 52 hours before the administration of a test compound, followed by s.c injection of 1 mg/rat of progestrerone, dissolved in 0.2 ml of sesame oil, about 4 hours before the administration of a test compound.
Screening test was performed in an observation cage (60×40×30 cm) with plexiglass front. Before screening test, the male rats were allowed to adapt to the observation cage for 10 minutes and then the female rats with artificial estrus were brought into the cage. If male rats had ejaculated within 30 minutes, they were regarded as sexually active ones. Selected male rats went through copulatory experience for 5 times at 3 days intervals.
The experienced males were divided into 15 groups of about 10 animals so that the mean ejaculation latency time (ELT) of groups are similar. Test compound was single orally administered.
Group 1 as a negative control was administered with 0.5% methylcellulose 1500 (Sigma Co., hereinafter as “MC 1500”). […] Groups 5˜7 were administered with double-drug combinations. Groups 8˜15 were administered with triple-drug combinations having various doses. Detailed doses are represented in Table 2 below.
After 2 hours and 50 minutes from the administration of test compounds, the male rats were allowed to adapt to the observation cage for 10 minutes. Then copulatory behavior test was initiated with the introduction of female rats with artificial estrus into the observation cage. The ejaculation latency time (ELT) as the time from the first intromission until the ejaculation was evaluated.

[5] = clomipramine 50 mg; sertraline 50 mg to 200 mg per day; fluoxetine 40 mg and another report; cited from earlier work
[6] = rat, in vivo, po
Protocol: Rats were supplemented with about 200 μl of heparinized saline (20 IU/ml) at each sampling times.
The maximum plasma concentration (Cmax) and the time to reach Cmax (Tmax) were obtained from the plasma concentration-time curve. The area under the plasma concentration-time curve (AUC) was calculated by using the trapezoidal rule.

[7] = Side effect evaluation, clinical study (nausea); assay type: in vivo, human; conditions: sertraline 50.0 mg, triple C 7.5 + S 11.3 + F 5.9 mg
Protocol: as §1
A side effect incidence rate of nausea was investigated among patients who took each drug in Example 4.

In the case of CN(C)CCCN1c2ccccc2CCc2ccc(Cl)cc21 [Clomipramine, clomipramine], the “Ejaculation delay effect (literature)” value [1] is given as “ejaculation latency effect; also recorded: ejaculation was delayed”, the “Incidence rate of sedation” value ([2]; 20 patients) is given as 70% and the No. of sedation ([2]; of 20 patients) is given as 14. The “Patient no. with ELT of 10 min or over” value [3] was 15, the Treatment effect [3] was 75% and the “Ejaculation latency time, mean ± S.E.M.” value [4] was 177.2 ± 47.6 s. The “Increasing rate of ELT” value [4] was −14.3% and the “Side effects (literature)” value [5] was “constipation, dry-mouth, nausea, drowsiness, headache and dizziness”.

For CNCCC(Oc1ccc(C(F)(F)F)cc1)c1ccccc1 (centres unmarked) [Fluoxetine, fluoxetine], the “Cmax and AUC after triple-drug combination compared with single drug administration (in words)” value [6] is given as “increases in Cmax and AUC”, the “Ejaculation delay effect (literature)” value [1] is given as “the ejaculation delay effect was weak” and the “Patient no. with ELT of 10 min or over” value [3] is given as 0. The Treatment effect [3] was “the curative effect did not show up”, the “Ejaculation latency time, mean ± S.E.M.” value [4] was 141.3 ± 51.2 s and the “Increasing rate of ELT” value [4] was −31.7%. For the same molecule, the “Side effects (literature)” value [5] was “drowsiness, dry-mouth, nausea, vomiting; also recorded: nausea, headache, and insomnia”.

For CN[C@H]1CC[C@@H](c2ccc(Cl)c(Cl)c2)c2ccccc21 [Sertraline, sertraline], the “Incidence rate of nausea” value ([7]; 20 patients) was 90%, the No. of nausea ([7]; of 20 patients) was 18 and the “Cmax and AUC after triple-drug combination compared with single drug administration (in words)” value [6] was “only AUC increased significantly”. For the same molecule, the “Ejaculation delay effect (literature)” value [1] was “the ejaculation was delayed”, the “Patient no. with ELT of 10 min or over” value [3] was 8 and the Treatment effect [3] was 40%. The Treatment effect ([3]; listed as sertraline) was “about 40%” and the “Side effects (literature)” value [5] was “nausea, vomiting”.
